In PubChem BioAssay (NCI):
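GI50 is the concentration that inhibits growth by half. TGI marks complete inhibition of growth.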

Key:
Assay in all cases: NCI tumour cell line growth inhibition, 384-well format
[1] = test system: SF-295 CNS
[2] = test system: IGROV1 ovarian
[3] = test system: NCI-H460 NSCLC
[4] = test system: U251 glioblastoma
[5] = test system: OVCAR-4 ovarian
[6] = test system: SF-268 CNS
[7] = test system: COLO 205 colon
[8] = test system: HS 578T breast
[9] = test system: SK-MEL-5 melanoma
[10] = test system: SW-620 colon
[11] = test system: CAKI-1 renal
[12] = test system: T-47D breast
[13] = test system: HCT-15 colon
[14] = test system: SR leukemia
[15] = test system: SK-MEL-28 melanoma
[16] = test system: MALME-3M melanoma
[17] = test system: RXF 393 renal
[18] = test system: HOP-62 NSCLC
[19] = test system: UACC-62 melanoma
[20] = test system: MOLT-4 leukemia
[21] = test system: HOP-92 NSCLC
[22] = test system: MDA-MB-231 breast
[23] = test system: NCI-H522 lung
[24] = test system: SNB-19 CNS
[25] = test system: PC-3 prostate
[26] = test system: UACC-257 melanoma
[27] = test system: NCI-H322M lung
[28] = test system: TK-10 renal
[29] = test system: OVCAR-3 ovarian
[30] = test system: UO-31 renal
[31] = test system: NCI-H23 lung
[32] = test system: KM12 colon
[33] = test system: EKVX NSCLC
[34] = test system: NCI-H226 lung
[35] = test system: SF-539 CNS
[36] = test system: HL-60(TB) leukemia
[37] = test system: DU-145 prostate
[38] = test system: ACHN renal
[39] = test system: BT-549 breast
[40] = test system: SNB-75 CNS
[41] = test system: MDA-MB-468 breast
[42] = test system: SN12C renal
[43] = test system: MCF7 breast
[44] = test system: A498 renal
[45] = test system: SK-OV-3 ovarian
[46] = test system: M14 melanoma
[47] = test system: HT29 colon
[48] = test system: A549 NSCLC
[49] = test system: MDA-MB-435 melanoma
[50] = test system: HCT-116 colon
[51] = test system: NCI/ADR-RES ovarian
[52] = test system: RPMI-8226 leukemia
[53] = test system: 786-0 renal
[54] = test system: LOX IMVI melanoma
[55] = test system: HCC-2998 colon
[56] = test system: OVCAR-5 ovarian
[57] = test system: OVCAR-8 ovarian

For `COc1cc2nccc(Oc3ccc(NC(=O)NC4CC4)c(Cl)c3)c2cc1C(N)=O`, the GI50 [1] was 30.1 µM, the TGI [1] was greater than 100 µM and the GI50 [2] was 19.2 µM. The TGI [2] was 97.3 µM, the GI50 [3] was 41 µM and the TGI [3] was greater than 100 µM. It also gave a GI50 [4] of 30.7 µM, a TGI [4] greater than 100 µM and a GI50 [5] of 14.7 µM. It also gave a TGI [5] of 44.7 µM, a GI50 [6] of 15.9 µM and a TGI [6] of 44.6 µM. The GI50 [7] was 69.5 µM, the TGI [7] was greater than 100 µM and the GI50 [8] was 12.2 µM. The TGI [8] was 28 µM, the GI50 [9] was 17.8 µM and the TGI [9] was 55.5 µM. For the same molecule, the GI50 [10] was 77.4 µM, the TGI [10] was greater than 100 µM and the GI50 [11] was 9.97 µM. The TGI [11] was 35.1 µM, the GI50 [12] was 16.8 µM and the TGI [12] was 78.7 µM. It also gave a GI50 [13] of 25.8 µM, a TGI [13] greater than 100 µM and a GI50 [14] of 31.4 µM. For the same molecule, the TGI [14] was 50.9 µM, the GI50 [15] was 72.8 µM and the TGI [15] was greater than 100 µM. For the same molecule, the GI50 [16] was 19.3 µM, the TGI [16] was 77.8 µM and the GI50 [17] was 3.53 µM. For the same molecule, the TGI [17] was 25.1 µM, the GI50 [18] was 38.2 µM and the TGI [18] was greater than 100 µM. For the same molecule, the GI50 [19] was 39.7 µM, the TGI [19] was greater than 100 µM and the GI50 [20] was 5.38 µM. It also gave a TGI [20] of 23.3 µM, a GI50 [21] of 14.5 µM and a TGI [21] of 72.1 µM. For the same molecule, the GI50 [22] was 17.3 µM, the TGI [22] was 59.4 µM and the GI50 [23] was 5.29 µM. For the same molecule, the TGI [23] was 20.6 µM, the GI50 [24] was 44.6 µM and the TGI [24] was greater than 100 µM. For the same molecule, the GI50 [25] was 61.7 µM, the TGI [25] was greater than 100 µM and the GI50 [26] was 38.3 µM. The TGI [26] was greater than 100 µM, the GI50 [27] was 48.3 µM and the TGI [27] was greater than 100 µM. For the same molecule, the GI50 [28] was 51.5 µM, the TGI [28] was greater than 100 µM and the GI50 [29] was 17.9 µM. It also gave a TGI [29] of 78 µM, a GI50 [30] of 15.9 µM and a TGI [30] of 71.1 µM. It also gave a GI50 [31] of 14.2 µM, a TGI [31] of 55.8 µM and a GI50 [32] of 5.76 µM. For the same molecule, the TGI [32] was greater than 100 µM, the GI50 [33] was 29.1 µM and the TGI [33] was greater than 100 µM. It also gave a GI50 [34] of 0.817 µM, a TGI [34] of 22.2 µM and a GI50 [35] of 2.41 µM. For the same molecule, the TGI [35] was 69.4 µM, the GI50 [36] was 25.6 µM and the TGI [36] was 68.9 µM. The GI50 [37] was 26.1 µM, the TGI [37] was greater than 100 µM and the GI50 [38] was 11.6 µM. For the same molecule, the TGI [38] was 24.2 µM, the GI50 [39] was 3.76 µM and the TGI [39] was 20.4 µM. It also gave a GI50 [40] of 12.1 µM, a TGI [40] of 38.3 µM and a GI50 [41] of 11.5 µM. The TGI [41] was 66.2 µM, the GI50 [42] was 13.4 µM and the TGI [42] was 86.9 µM. For the same molecule, the GI50 [43] was 35.4 µM, the TGI [43] was greater than 100 µM and the GI50 [44] was 22 µM. For the same molecule, the TGI [44] was 69.6 µM, the GI50 [45] was 35.9 µM and the TGI [45] was greater than 100 µM. The GI50 [46] was 23.4 µM, the TGI [46] was 64.9 µM and the GI50 [47] was greater than 100 µM. The TGI [47] was greater than 100 µM, the GI50 [48] was 40 µM and the TGI [48] was greater than 100 µM. For the same molecule, the GI50 [49] was 74.1 µM, the TGI [49] was greater than 100 µM and the GI50 [50] was 38.3 µM. It also gave a TGI [50] greater than 100 µM, a GI50 [51] of 63.8 µM and a TGI [51] greater than 100 µM. The GI50 [52] was 11.7 µM, the TGI [52] was 63 µM and the GI50 [53] was 22.9 µM. The TGI [53] was greater than 100 µM, the GI50 [54] was 52.2 µM and the TGI [54] was greater than 100 µM. The GI50 [55] was greater than 100 µM, the TGI [55] was greater than 100 µM and the GI50 [56] was 50 µM. It also gave a TGI [56] greater than 100 µM, a GI50 [57] of 25.5 µM and a TGI [57] greater than 100 µM.

Work on `Cc1ccc(NC(=O)c2ccc(CN3CCN(C)CC3)cc2)cc1Nc1nccc(-c2cccnc2)n1` yielded a GI50 [1] of 14.2 µM, a TGI [1] of 27.8 µM and a GI50 [2] of 12.5 µM. It also gave a TGI [2] of 25.2 µM, a GI50 [3] of 16.6 µM and a TGI [3] of 30.9 µM. The GI50 [4] was 14.1 µM, the TGI [4] was 28 µM and the GI50 [5] was 16.2 µM. For the same molecule, the TGI [5] was 30.7 µM, the GI50 [6] was 18.7 µM and the TGI [6] was 36.2 µM. The GI50 [7] was 16.3 µM, the TGI [7] was 29.9 µM and the GI50 [8] was 12.9 µM. The TGI [8] was 25.6 µM, the GI50 [9] was 10.4 µM and the TGI [9] was 22.2 µM. For the same molecule, the GI50 [10] was 20.6 µM, the TGI [10] was 41.2 µM and the GI50 [11] was 16.7 µM. It also gave a TGI [11] of 30.5 µM, a GI50 [12] of 6.92 µM and a TGI [12] of 20 µM. For the same molecule, the GI50 [13] was 2.48 µM, the TGI [13] was 5.73 µM and the GI50 [14] was 8.83 µM. The TGI [14] was 19.6 µM, the GI50 [15] was 14.4 µM and the TGI [15] was 27.7 µM. The GI50 [16] was 2.58 µM, the TGI [16] was 5.42 µM and the GI50 [17] was 3.61 µM. For the same molecule, the TGI [17] was 16.2 µM, the GI50 [18] was 14.2 µM and the TGI [18] was 27.4 µM. The GI50 [19] was 13.6 µM, the TGI [19] was 26.7 µM and the GI50 [20] was 4.23 µM. The TGI [20] was 15.4 µM, the GI50 [21] was 13.7 µM and the TGI [21] was 28.1 µM. The GI50 [22] was 12.6 µM, the TGI [22] was 26.7 µM and the GI50 [23] was 12 µM. For the same molecule, the TGI [23] was 24.7 µM, the GI50 [24] was 22.1 µM and the TGI [24] was 49.3 µM. For the same molecule, the GI50 [25] was 16 µM, the TGI [25] was 31.1 µM and the GI50 [26] was 2.49 µM. For the same molecule, the TGI [26] was 6.18 µM, the GI50 [27] was 8.53 µM and the TGI [27] was 21.2 µM. It also gave a GI50 [28] of 20.3 µM, a TGI [28] of 43.1 µM and a GI50 [29] of 17.1 µM. The TGI [29] was 31.8 µM, the GI50 [30] was 15.8 µM and the TGI [30] was 30.6 µM. The GI50 [31] was 11.5 µM, the TGI [31] was 24.3 µM and the GI50 [32] was 14.3 µM. The TGI [32] was 27.6 µM, the GI50 [33] was 15.5 µM and the TGI [33] was 29.8 µM. For the same molecule, the GI50 [34] was 6.87 µM, the TGI [34] was 19.1 µM and the GI50 [35] was 9.13 µM. For the same molecule, the TGI [35] was 21.4 µM, the GI50 [36] was 5.97 µM and the TGI [36] was 16 µM. It also gave a GI50 [37] of 17.1 µM, a TGI [37] of 31.1 µM and a GI50 [38] of 15.4 µM. The TGI [38] was 29 µM, the GI50 [39] was 12.1 µM and the TGI [39] was 24.6 µM. The GI50 [40] was 21.7 µM, the TGI [40] was 36.2 µM and the GI50 [41] was 5.1 µM. It also gave a TGI [41] of 17.9 µM, a GI50 [42] of 24.7 µM and a TGI [42] of 64.4 µM. For the same molecule, the GI50 [43] was 10.6 µM, the TGI [43] was 22.7 µM and the GI50 [44] was 6.8 µM. For the same molecule, the TGI [44] was 19 µM, the GI50 [45] was 19.7 µM and the TGI [45] was 37.1 µM. The GI50 [46] was 5.66 µM, the TGI [46] was 16.7 µM and the GI50 [47] was 2.66 µM. The TGI [47] was 6.67 µM, the GI50 [48] was 16.5 µM and the TGI [48] was 35.1 µM. It also gave a GI50 [49] of 16.7 µM, a TGI [49] of 31.4 µM and a GI50 [50] of 6.25 µM. For the same molecule, the TGI [50] was 18.8 µM, the GI50 [51] was 17.2 µM and the TGI [51] was 32.1 µM. It also gave a GI50 [52] of 11.2 µM, a TGI [52] of 23.3 µM and a GI50 [53] of 2.87 µM. It also gave a TGI [53] of 7.97 µM, a GI50 [54] of 4.25 µM and a TGI [54] of 14.9 µM. It also gave a GI50 [55] of 5.93 µM, a TGI [55] of 17.5 µM and a GI50 [56] of 13.4 µM. For the same molecule, the TGI [56] was 36.8 µM, the GI50 [57] was 14.8 µM and the TGI [57] was 28.4 µM.
